In ChEMBL document CHEMBL1909046, “DrugMatrix in vitro pharmacology data”:

Legend:
[1] = DRUGMATRIX: Phosphodiesterase PDE3 enzyme inhibition (substrate: [3H]cAMP + cAMP); format: tissue-based, Homo sapiens; settings: platelet; Not Active = under 50% inhibition at 10 µM
[2] = molecular target: Protein kinase C alpha type (Homo sapiens, UniProt P17252); format: cell-based; settings: sf9;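 note: inhibition of PKCalpha kinase activity measured in an enzyme assay with histone as the phosphorylation substrate; in other assays of this panel Not Active means under 50% inhibition at 10 µM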
[3] = molecular target: Epidermal growth factor receptor (Homo sapiens, UniProt P00533); test: DRUGMATRIX: Protein Tyrosine Kinase, EGF Receptor enzyme inhibition (substrate: Poly(Glu:Tyr)); format: cell-based, Insect cells; settings: insect cells; Not Active = under 50% inhibition at 10 µM
Epidermal growth factor receptor, sequence (P00533 whole entry): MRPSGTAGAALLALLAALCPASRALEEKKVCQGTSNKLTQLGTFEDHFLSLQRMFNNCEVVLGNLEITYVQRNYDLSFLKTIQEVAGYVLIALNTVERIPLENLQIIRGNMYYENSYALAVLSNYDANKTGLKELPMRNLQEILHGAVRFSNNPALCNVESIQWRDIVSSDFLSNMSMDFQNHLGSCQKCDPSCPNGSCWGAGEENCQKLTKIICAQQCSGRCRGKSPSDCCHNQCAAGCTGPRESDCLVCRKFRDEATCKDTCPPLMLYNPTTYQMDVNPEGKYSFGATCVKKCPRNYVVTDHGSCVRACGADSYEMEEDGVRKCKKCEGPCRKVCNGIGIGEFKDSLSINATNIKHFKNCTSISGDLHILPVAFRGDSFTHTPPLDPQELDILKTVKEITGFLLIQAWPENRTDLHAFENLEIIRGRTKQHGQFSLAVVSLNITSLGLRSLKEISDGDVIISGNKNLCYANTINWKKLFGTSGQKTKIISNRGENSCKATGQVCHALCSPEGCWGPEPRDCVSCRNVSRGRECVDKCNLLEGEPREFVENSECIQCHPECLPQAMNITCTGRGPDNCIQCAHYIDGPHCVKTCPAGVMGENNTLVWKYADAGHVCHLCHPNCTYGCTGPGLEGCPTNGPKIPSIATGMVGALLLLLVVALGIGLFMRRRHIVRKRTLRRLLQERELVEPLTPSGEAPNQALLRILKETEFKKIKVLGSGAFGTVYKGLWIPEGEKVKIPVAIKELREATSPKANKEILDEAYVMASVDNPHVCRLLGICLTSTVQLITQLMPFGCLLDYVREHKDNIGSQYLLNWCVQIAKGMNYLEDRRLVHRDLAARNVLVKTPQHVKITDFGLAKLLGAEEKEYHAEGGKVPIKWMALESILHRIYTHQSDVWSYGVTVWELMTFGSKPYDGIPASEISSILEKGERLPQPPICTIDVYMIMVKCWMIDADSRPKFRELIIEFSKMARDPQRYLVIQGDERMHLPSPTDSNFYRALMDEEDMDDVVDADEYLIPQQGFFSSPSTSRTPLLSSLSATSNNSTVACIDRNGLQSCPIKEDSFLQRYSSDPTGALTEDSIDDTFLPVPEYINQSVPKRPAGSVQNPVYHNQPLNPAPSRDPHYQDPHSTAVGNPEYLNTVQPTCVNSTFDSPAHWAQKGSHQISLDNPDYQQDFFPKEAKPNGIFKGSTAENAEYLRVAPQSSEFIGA

[4] = molecular target: T1, Muscarinic acetylcholine receptor M4 (Homo sapiens, UniProt P08173); format: cell membranes, CHO-K1, Membrane; settings: cho-k1; note: in other assays of this panel Not Active means under 50% inhibition at 10 µM
T1 sequence (P08173 whole entry): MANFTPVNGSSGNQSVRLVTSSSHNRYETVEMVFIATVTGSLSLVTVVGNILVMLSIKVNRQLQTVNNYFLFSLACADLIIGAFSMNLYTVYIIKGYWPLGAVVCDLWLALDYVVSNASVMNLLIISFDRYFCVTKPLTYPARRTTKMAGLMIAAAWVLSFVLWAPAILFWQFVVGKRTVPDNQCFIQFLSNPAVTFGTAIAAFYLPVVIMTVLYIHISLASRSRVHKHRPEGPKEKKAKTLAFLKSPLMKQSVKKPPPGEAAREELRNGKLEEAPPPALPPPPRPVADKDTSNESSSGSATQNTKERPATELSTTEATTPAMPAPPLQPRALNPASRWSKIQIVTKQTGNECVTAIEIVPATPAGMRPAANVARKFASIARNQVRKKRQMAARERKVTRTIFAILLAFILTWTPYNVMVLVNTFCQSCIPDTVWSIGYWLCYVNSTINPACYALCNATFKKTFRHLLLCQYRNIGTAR

[5] = molecular target: T2, Nitric oxide synthase, inducible (Mus musculus, UniProt P29477); set-up: species or system Escherichia coli;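 note: inhibition of iNOS enzyme activity measured with L-arginine as substrate; in other assays of this panel Not Active means under 50% inhibition at 10 µM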
T2 sequence (P29477 whole entry): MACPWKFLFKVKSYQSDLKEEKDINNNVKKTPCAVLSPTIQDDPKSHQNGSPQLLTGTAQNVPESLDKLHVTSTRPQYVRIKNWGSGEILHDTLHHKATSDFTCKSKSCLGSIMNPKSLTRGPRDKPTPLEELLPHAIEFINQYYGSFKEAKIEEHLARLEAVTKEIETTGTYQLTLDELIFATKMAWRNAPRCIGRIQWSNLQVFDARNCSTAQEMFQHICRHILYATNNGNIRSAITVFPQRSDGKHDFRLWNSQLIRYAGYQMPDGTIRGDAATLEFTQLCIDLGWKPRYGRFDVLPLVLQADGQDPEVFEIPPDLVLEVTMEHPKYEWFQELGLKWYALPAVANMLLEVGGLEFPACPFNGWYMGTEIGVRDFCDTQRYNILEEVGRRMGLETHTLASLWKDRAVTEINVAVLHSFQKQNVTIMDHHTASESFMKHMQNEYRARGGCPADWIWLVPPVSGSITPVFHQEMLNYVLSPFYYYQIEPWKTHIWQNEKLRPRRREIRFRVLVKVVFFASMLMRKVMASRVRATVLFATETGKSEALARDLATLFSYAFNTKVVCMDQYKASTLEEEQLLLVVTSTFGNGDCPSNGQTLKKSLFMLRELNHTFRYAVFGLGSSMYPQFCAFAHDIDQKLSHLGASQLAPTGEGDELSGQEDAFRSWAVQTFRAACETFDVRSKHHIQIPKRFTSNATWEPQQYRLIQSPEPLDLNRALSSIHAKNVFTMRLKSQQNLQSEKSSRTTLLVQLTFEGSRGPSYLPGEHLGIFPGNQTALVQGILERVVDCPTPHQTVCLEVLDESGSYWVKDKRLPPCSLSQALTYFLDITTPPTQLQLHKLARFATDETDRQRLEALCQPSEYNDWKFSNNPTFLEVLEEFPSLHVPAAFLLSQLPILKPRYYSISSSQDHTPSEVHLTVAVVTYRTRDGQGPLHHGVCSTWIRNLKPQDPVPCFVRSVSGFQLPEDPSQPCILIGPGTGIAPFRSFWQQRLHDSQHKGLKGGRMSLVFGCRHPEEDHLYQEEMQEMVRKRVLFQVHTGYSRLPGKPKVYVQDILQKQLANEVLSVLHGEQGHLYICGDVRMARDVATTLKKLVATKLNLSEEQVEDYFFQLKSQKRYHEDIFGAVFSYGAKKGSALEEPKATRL

[6] = molecular target: T3, Alpha-1B adrenergic receptor (Rattus norvegicus, UniProt P15823); test: DRUGMATRIX: Alpha-1B adrenergic receptor radioligand binding (ligand: prazosin); format: cell membranes, Wistar, Liver, Membrane; settings: Not Active = under 50% inhibition at 10 µM
T3 sequence (P15823 whole entry): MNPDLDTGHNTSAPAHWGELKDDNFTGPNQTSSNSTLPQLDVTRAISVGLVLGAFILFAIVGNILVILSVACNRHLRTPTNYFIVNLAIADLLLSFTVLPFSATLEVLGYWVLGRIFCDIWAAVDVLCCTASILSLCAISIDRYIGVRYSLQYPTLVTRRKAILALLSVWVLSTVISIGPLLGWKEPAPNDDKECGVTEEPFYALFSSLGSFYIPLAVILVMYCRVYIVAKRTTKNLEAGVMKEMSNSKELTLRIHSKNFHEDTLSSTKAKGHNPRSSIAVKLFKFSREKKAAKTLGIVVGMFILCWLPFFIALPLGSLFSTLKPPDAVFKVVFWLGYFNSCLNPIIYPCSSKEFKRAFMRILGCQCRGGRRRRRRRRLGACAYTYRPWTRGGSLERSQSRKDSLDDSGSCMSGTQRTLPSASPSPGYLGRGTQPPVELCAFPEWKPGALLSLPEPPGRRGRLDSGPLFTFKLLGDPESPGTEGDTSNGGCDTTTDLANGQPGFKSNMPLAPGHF

Cathepsin G = molecular target: T4, Cathepsin G (Homo sapiens, UniProt P08311); format: tissue-based; settings: neutrophil;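 note: inhibition of Cathepsin G enzyme activity, tested on an AMC-conjugated peptide substrate; in other assays of this panel Not Active means under 50% inhibition at 10 µM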
T4 sequence (P08311 whole entry): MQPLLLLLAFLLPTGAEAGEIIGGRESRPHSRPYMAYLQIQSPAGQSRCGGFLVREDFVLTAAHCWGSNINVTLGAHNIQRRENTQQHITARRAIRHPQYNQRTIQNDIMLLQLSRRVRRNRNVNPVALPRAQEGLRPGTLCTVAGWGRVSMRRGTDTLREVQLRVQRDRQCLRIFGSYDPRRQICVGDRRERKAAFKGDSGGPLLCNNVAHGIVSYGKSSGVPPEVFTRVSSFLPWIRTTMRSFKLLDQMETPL

[7] = molecular target: Matrix metalloproteinase-9 (Homo sapiens, UniProt P14780); format: cell-based
Matrix metalloproteinase-9, sequence (P14780 whole entry): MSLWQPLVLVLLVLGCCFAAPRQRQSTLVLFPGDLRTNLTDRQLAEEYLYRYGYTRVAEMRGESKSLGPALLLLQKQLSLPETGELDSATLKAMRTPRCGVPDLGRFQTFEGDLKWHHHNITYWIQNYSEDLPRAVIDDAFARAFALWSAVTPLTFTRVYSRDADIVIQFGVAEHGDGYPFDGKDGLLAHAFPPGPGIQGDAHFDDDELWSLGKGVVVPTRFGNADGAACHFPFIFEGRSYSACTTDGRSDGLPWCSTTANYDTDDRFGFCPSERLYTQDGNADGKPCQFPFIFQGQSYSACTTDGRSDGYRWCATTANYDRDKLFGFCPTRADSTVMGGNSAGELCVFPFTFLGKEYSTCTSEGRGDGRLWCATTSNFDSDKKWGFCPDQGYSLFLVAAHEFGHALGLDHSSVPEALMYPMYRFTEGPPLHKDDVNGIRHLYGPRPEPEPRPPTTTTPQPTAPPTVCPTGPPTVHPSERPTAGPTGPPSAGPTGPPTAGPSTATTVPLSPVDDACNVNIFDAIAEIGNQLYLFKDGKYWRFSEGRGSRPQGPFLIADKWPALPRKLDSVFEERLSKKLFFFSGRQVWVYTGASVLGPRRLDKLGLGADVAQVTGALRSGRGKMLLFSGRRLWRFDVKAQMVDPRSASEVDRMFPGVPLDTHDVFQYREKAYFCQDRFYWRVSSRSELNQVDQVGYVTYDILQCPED

D(1A) dopamine receptor = D(1A) dopamine receptor (Homo sapiens, UniProt P21728); test: DRUGMATRIX: Dopamine D1 radioligand binding (ligand: [3H] SCH-23390); format: cell membranes, CHO, Membrane; settings: cho; Not Active = under 50% inhibition at 10 µM
D(1A) dopamine receptor, sequence (P21728 whole entry): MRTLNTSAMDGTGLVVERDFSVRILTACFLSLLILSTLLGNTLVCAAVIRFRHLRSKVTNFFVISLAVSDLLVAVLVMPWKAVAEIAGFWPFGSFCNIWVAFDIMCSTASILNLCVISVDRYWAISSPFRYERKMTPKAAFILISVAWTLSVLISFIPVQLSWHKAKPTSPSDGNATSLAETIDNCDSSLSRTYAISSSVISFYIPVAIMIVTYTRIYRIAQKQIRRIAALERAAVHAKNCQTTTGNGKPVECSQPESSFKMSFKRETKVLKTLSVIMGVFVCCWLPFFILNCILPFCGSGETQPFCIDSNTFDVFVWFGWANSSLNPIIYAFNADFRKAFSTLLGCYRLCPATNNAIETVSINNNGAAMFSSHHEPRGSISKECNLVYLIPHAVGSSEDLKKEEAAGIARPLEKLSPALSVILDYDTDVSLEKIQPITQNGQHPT

[8] = DRUGMATRIX: Purinergic P2X radioligand binding (ligand: [3H] alpha, beta-Methylene-ATP); format: cell membranes, Oryctolagus cuniculus, New Zealand albino, Urinary bladder, Membrane; settings: Not Active = under 50% inhibition at 10 µM

NC(=O)c1ccccc1O [SALICYLAMIDE]
IC50 [1]: Not Active
Ki [1]: Not Active
IC50 [2]: Not Active
IC50 [3]: Not Active
IC50 [4]: Not Active
IC50 [5]: Not Active
IC50 [6]: Not Active
IC50 (Cathepsin G): Not Active
IC50 [7]: Not Active
IC50 (D(1A) dopamine receptor): Not Active
IC50 [8]: Not Active
Ki [8]: Not Active

CCC[C@@H]1C[C@@H](C(=O)N[C@@H]([C@H]2O[C@H](SC)[C@H](O)[C@@H](O)[C@H]2O)[C@@H](C)O)N(C)C1 [LINCOMYCIN]
IC50 [1]: Not Active
Ki [1]: Not Active
IC50 [2]: Not Active
IC50 [3]: Not Active
IC50 [4]: Not Active
IC50 [5]: Not Active
IC50 [6]: Not Active
IC50 (Cathepsin G): Not Active
IC50 [7]: Not Active
IC50 (D(1A) dopamine receptor): Not Active
IC50 [8]: Not Active
Ki [8]: Not Active

NNc1ccccc1 [PHENYLHYDRAZINE]
IC50 [1]: Not Active
Ki [1]: Not Active
IC50 [2]: Not Active
IC50 [3]: Not Active
IC50 [4]: Not Active
IC50 [5]: Not Active
IC50 [6]: Not Active
IC50 (Cathepsin G): Not Active
IC50 [7]: Not Active
IC50 (D(1A) dopamine receptor): Not Active
IC50 [8]: Not Active
Ki [8]: Not Active

NC(CO)(CO)CO [TROMETHAMINE]
IC50 [1]: Not Active
Ki [1]: Not Active
IC50 [2]: Not Active
IC50 [3]: Not Active
IC50 [4]: Not Active
IC50 [5]: Not Active
IC50 [6]: Not Active
IC50 (Cathepsin G): Not Active
IC50 [7]: Not Active
IC50 (D(1A) dopamine receptor): Not Active
IC50 [8]: Not Active
Ki [8]: Not Active

COC(=O)C1=C(C)NC(C)=C(C(=O)OC)C1c1ccccc1[N+](=O)[O-] [NIFEDIPINE]
IC50 [1]: Not Active
Ki [1]: Not Active
IC50 [2]: Not Active
IC50 [3]: Not Active
IC50 [4]: Not Active
IC50 [5]: Not Active
IC50 [6]: Not Active
IC50 (Cathepsin G): Not Active
IC50 [7]: Not Active
IC50 (D(1A) dopamine receptor): Not Active
IC50 [8]: Not Active
Ki [8]: Not Active

CC[C@H]1OC(=O)[C@H](C)[C@@H](O[C@H]2C[C@@](C)(OC)[C@@H](O)[C@H](C)O2)[C@H](C)[C@@H](O[C@@H]2O[C@H](C)C[C@H](N(C)C)[C@H]2O)[C@](C)(O)C[C@@H](C)/C(=N\OCOCCOC)[C@H](C)[C@@H](O)[C@]1(C)O [ROXITHROMYCIN]
IC50 [1]: Not Active
Ki [1]: Not Active
IC50 [2]: Not Active
IC50 [3]: Not Active
IC50 [4]: Not Active
IC50 [5]: Not Active
IC50 ([6]; read-out: IC50): 989 nM
Ki ([6]; read-out: Ki): 548 nM
IC50 (Cathepsin G): Not Active
IC50 [7]: Not Active
IC50 (D(1A) dopamine receptor): Not Active
IC50 [8]: Not Active
Ki [8]: Not Active

CC(C)[C@H](N)C(=O)OCCOCn1cnc2c(=O)nc(N)[nH]c21 [VALACYCLOVIR]
IC50 [1]: Not Active
Ki [1]: Not Active
IC50 [2]: Not Active
IC50 [3]: Not Active
IC50 [4]: Not Active
IC50 [5]: Not Active
IC50 [6]: Not Active
IC50 (Cathepsin G): Not Active
IC50 [7]: Not Active
IC50 (D(1A) dopamine receptor): Not Active
IC50 [8]: Not Active
Ki [8]: Not Active

NC(=O)c1ncn([C@@H]2O[C@H](CO)[C@@H](O)[C@H]2O)n1 [RIBAVIRIN]
IC50 [1]: Not Active
Ki [1]: Not Active
IC50 [2]: Not Active
IC50 [3]: Not Active
IC50 [4]: Not Active
IC50 [5]: Not Active
IC50 [6]: Not Active
IC50 (Cathepsin G): Not Active
IC50 [7]: Not Active
IC50 (D(1A) dopamine receptor): Not Active
IC50 [8]: Not Active
Ki [8]: Not Active

COC(=O)c1ccc(O)cc1 [METHYLPARABEN]
IC50 [1]: Not Active
Ki [1]: Not Active
IC50 [2]: Not Active
IC50 [3]: Not Active
IC50 [4]: Not Active
IC50 [5]: Not Active
IC50 [6]: Not Active
IC50 (Cathepsin G): Not Active
IC50 [7]: Not Active
IC50 (D(1A) dopamine receptor): Not Active
IC50 [8]: Not Active
Ki [8]: Not Active

COc1ccc(C(CN(C)C)C2(O)CCCCC2)cc1 (stereo not drawn) [VENLAFAXINE]
IC50 [1]: Not Active
Ki [1]: Not Active
IC50 [2]: Not Active
IC50 [3]: Not Active
IC50 [4]: Not Active
IC50 [5]: Not Active
IC50 [6]: Not Active
IC50 (Cathepsin G): Not Active
IC50 [7]: Not Active
IC50 (D(1A) dopamine receptor): Not Active
IC50 [8]: Not Active
Ki [8]: Not Active

COS(C)(=O)=O [METHANESULFONIC ACID METHYL ESTER]
IC50 [1]: Not Active
Ki [1]: Not Active
IC50 [2]: Not Active
IC50 [3]: Not Active
IC50 [4]: Not Active
IC50 [5]: Not Active
IC50 [6]: Not Active
IC50 (Cathepsin G): Not Active
IC50 [7]: Not Active
IC50 (D(1A) dopamine receptor): Not Active
IC50 [8]: Not Active
Ki [8]: Not Active
